Laboratory results taken from ChEMBL document CHEMBL1201862, “PubChem BioAssay data set” (2004).
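96-well plates; 48 h exposure; 5 concentrations. Endpoints by linear interpolation between flanking doses. Not reached: highest tested concentration assigned. Abbreviation: GI50, concentration required for 50% inhibition of growth.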 Activity calls are given as the source filed them. No stated cut-off is given here; in the data, active = GI50 up to about 1.1 µM and inactive = higher.

What was measured:
Assay in all cases: NCI-60 cell line screen, 48 h
ACHN = test system: ACHN
DU-145 = test system: DU-145
EKVX = test system: EKVX
HCT-15 = test system: HCT-15
HOP-62 = test system: HOP-62
IGROV-1 = test system: IGROV-1
MDA-MB-435 = test system: MDA-MB-435
NCI-H226 = test system: NCI-H226
NCI/ADR-RES = test system: NCI/ADR-RES
RPMI-8226 = test system: RPMI-8226
RXF 393 = test system: RXF 393
SF-295 = test system: SF-295
SF-539 = test system: SF-539
SK-MEL-5 = test system: SK-MEL-5
SNB-19 = test system: SNB-19
SNB-75 = test system: SNB-75
UACC-62 = test system: UACC-62
Hs-578T = test system: Hs-578T

Measured: GI50

O=[N+]([O-])/C(C(Cl)=C(Cl)Cl)=C(\N1CCCCC1)n1cncn1
inactive: ACHN 17.7 µM | DU-145 16.6 µM | EKVX 15.8 µM | HOP-62 19.6 µM | IGROV-1 9.08 µM | MDA-MB-435 17.9 µM | NCI-H226 18.3 µM | NCI/ADR-RES 20.1 µM | RPMI-8226 19.1 µM | RXF 393 6.64 µM | SF-295 17.1 µM | SF-539 17.1 µM | SK-MEL-5 12.6 µM | SNB-19 17.7 µM | SNB-75 23 µM | UACC-62 15.2 µM
16 µM: HCT-15

Cn1cc(S(=O)(=O)NC(=O)Nc2ccc(Cl)cc2)c(=O)c2ccc(Cl)cc21
inactive: ACHN 34.2 µM | EKVX > 100 µM | HOP-62 > 100 µM | Hs-578T 72.1 µM | IGROV-1 > 100 µM | MDA-MB-435 48.5 µM | NCI-H226 75 µM | NCI/ADR-RES 38 µM | RXF 393 > 100 µM | SF-295 > 100 µM | SF-539 > 100 µM | SK-MEL-5 > 100 µM | SNB-19 87.9 µM | SNB-75 > 100 µM | UACC-62 20.9 µM
25.7 µM: HCT-15

C=C1c2nc3ccccc3n2C=C(c2ccc(Cl)cc2)N1c1ccccc1
inactive: ACHN 12.3 µM | DU-145 32.5 µM | EKVX 14.8 µM | IGROV-1 7.73 µM | MDA-MB-435 21 µM | NCI/ADR-RES 12.2 µM | RPMI-8226 28 µM | RXF 393 16.1 µM | SF-295 11.7 µM | SF-539 13.2 µM | SK-MEL-5 16.1 µM | SNB-19 6.56 µM | SNB-75 3.5 µM | UACC-62 18.3 µM
12.1 µM: HCT-15
active: NCI-H226 0.031 µM

CC(=O)O[C@H]1CC[C@@]2(C)C(=C[C@H](c3ccc(O)cc3)[C@H]3[C@@H]4CC[C@H](OC(C)=O)[C@@]4(C)CC[C@@H]32)C1
12.3 µM: HCT-15
inactive: ACHN 22.6 µM | DU-145 20.7 µM | EKVX 20.8 µM | HOP-62 19.1 µM | MDA-MB-435 25.2 µM | NCI-H226 17.4 µM | NCI/ADR-RES 13.5 µM | RPMI-8226 14 µM | RXF 393 22.5 µM | SF-295 29 µM | SF-539 21 µM | SK-MEL-5 11.4 µM | SNB-19 19.9 µM | SNB-75 24.7 µM | UACC-62 10.4 µM

O=C1c2ccccc2-c2nc(-c3ccncc3)cc3c2c1nc1ccccc13
active: IGROV-1 1.07 µM
19 µM: HCT-15
inactive: ACHN 8.32 µM | DU-145 14.8 µM | EKVX 34.2 µM | HOP-62 6.55 µM | MDA-MB-435 16 µM | NCI-H226 16.6 µM | NCI/ADR-RES > 100 µM | RPMI-8226 11.4 µM | SF-295 11.3 µM | SF-539 22 µM | SNB-19 23.6 µM | SNB-75 32.5 µM | UACC-62 13.4 µM

Cc1cccc(-c2nc(-c3cnccn3)n(Cc3ccccc3)n2)c1
> 100 µM: HCT-15
active: SNB-75 < 0.01 µM
inactive: DU-145 > 100 µM | HOP-62 35.1 µM | IGROV-1 > 100 µM | MDA-MB-435 > 100 µM | NCI/ADR-RES > 100 µM | RPMI-8226 > 100 µM | RXF 393 29.6 µM | SF-295 50.8 µM | SF-539 > 100 µM | SK-MEL-5 > 100 µM | SNB-19 95.1 µM | UACC-62 70.8 µM

CCCCCCCCCCCCCCCCOCC(CCl)OP(=O)(O)OP(=O)(O)OCC1OC(n2ccc(N)nc2=O)C(O)C1O (stereo unspecified)
inactive: ACHN > 100 µM | EKVX > 100 µM | HOP-62 > 100 µM | Hs-578T > 100 µM | IGROV-1 > 100 µM | MDA-MB-435 > 100 µM | NCI-H226 > 100 µM | NCI/ADR-RES > 100 µM | RPMI-8226 > 100 µM | RXF 393 > 100 µM | SF-295 > 100 µM | SF-539 > 100 µM | SK-MEL-5 > 100 µM | SNB-19 > 100 µM | SNB-75 6.07 µM | UACC-62 > 100 µM
> 100 µM: HCT-15
